Calls of active or inactive are those of the source. The rule behind the calls is not given here.
Legend:
[1] = Lipophilicity, log P of the compound; assay type: physicochemical; settings: octanol/water
Mus musculus [2] = experiment: Antipsychotic activity in albino lyka mouse assessed as reduction in apomorphine-induced mesh climbing response at 25 mg/kg, ip administered 10 mins prior to apomorphine challenge measured after 10 to 30 mins; assay type: functional, organism-based; parameters: dose 25 mg/kg
Mus musculus [3] = experiment: Antipsychotic activity in albino lyka mouse assessed as reversal of apomorphine-induced stereotype response at 25 mg/kg, ip administered 10 mins prior to apomorphine challenge measured after 10 to 30 mins; assay type: functional, organism-based; parameters: dose 25 mg/kg
Mus musculus [4] = experiment: Antipsychotic activity in albino lyka mouse assessed as reduction in apomorphine-induced mesh climbing response at 80 mg/kg, ip administered 10 mins prior to apomorphine challenge measured after 10 to 30 mins; assay type: functional, organism-based; parameters: dose 80 mg/kg
Mus musculus [5] = experiment: Antipsychotic activity in albino lyka mouse assessed as reversal of apomorphine-induced stereotype response at 80 mg/kg, ip administered 10 mins prior to apomorphine challenge measured after 10 to 30 mins; assay type: functional, organism-based; parameters: dose 80 mg/kg
Mus musculus [6] = experiment: Antipsychotic activity in albino lyka mouse assessed as reversal of apomorphine-induced stereotype response at 1 mg/kg, ip administered 10 mins prior to apomorphine challenge measured after 10 to 30 mins; assay type: functional, organism-based; parameters: dose 1 mg/kg
Mus musculus [7] = experiment: Antipsychotic activity in albino lyka mouse assessed as reduction in apomorphine-induced mesh climbing response at 1 mg/kg, ip administered 10 mins prior to apomorphine challenge measured after 10 to 30 mins; assay type: functional, organism-based; parameters: dose 1 mg/kg
Mus musculus [8] = experiment: Antipsychotic activity in albino lyka mouse assessed as reduction in apomorphine-induced mesh climbing response at 120 mg/kg, ip administered 10 mins prior to apomorphine challenge measured after 10 to 30 mins; assay type: functional, organism-based; parameters: dose 120 mg/kg
Mus musculus [9] = experiment: Antipsychotic activity in albino lyka mouse assessed as reversal of apomorphine-induced stereotype response at 120 mg/kg, ip administered 10 mins prior to apomorphine challenge measured after 10 to 30 mins; assay type: functional, organism-based; parameters: dose 120 mg/kg
Mus musculus [10] = experiment: Antipsychotic activity in albino lyka mouse assessed as reversal of apomorphine-induced stereotype response at 20 mg/kg, ip administered 10 mins prior to apomorphine challenge measured after 10 to 30 mins; assay type: functional, organism-based; parameters: dose 20 mg/kg
Mus musculus [11] = experiment: Antipsychotic activity in albino lyka mouse assessed as reduction in apomorphine-induced mesh climbing response at 20 mg/kg, ip administered 10 mins prior to apomorphine challenge measured after 10 to 30 mins; assay type: functional, organism-based; parameters: dose 20 mg/kg
Mus musculus [12] = experiment: Antipsychotic activity in albino lyka mouse assessed as reduction in apomorphine-induced mesh climbing response at 5 mg/kg, ip administered 10 mins prior to apomorphine challenge measured after 10 to 30 mins; assay type: functional, organism-based; parameters: dose 5 mg/kg
Mus musculus [13] = experiment: Antipsychotic activity in albino lyka mouse assessed as reversal of apomorphine-induced stereotype response at 5 mg/kg, ip administered 10 mins prior to apomorphine challenge measured after 10 to 30 mins; assay type: functional, organism-based; parameters: dose 5 mg/kg

## c1ccc(CN2CCN(CCCOc3ccc4ncccc4c3)CC2)cc1
[1]
  logP: 3.58
Mus musculus [2]
  Activity: inactive
Mus musculus [3]
  Activity: inactive

## O=C1Cc2cc(CCN3CCN(c4nsc5ccccc45)CC3)c(Cl)cc2N1 [ZIPRASIDONE]
[1]
  logP: 4.67

## Clc1ccc(CN2CCN(CCCOc3cccc4cccnc34)CC2)cc1
Mus musculus [4]
  Activity: Active
Mus musculus [5]
  Activity: inactive
[1]
  logP: 4.14

## O=C(c1ccc(Cl)cc1)N1CCN(CCCOc2ccc3ncccc3c2)CC1
Mus musculus [6]
  Activity: Active
[1]
  logP: 3.58
Mus musculus [7]
  Activity: inactive

## c1ccc(CN2CCN(CCCOc3cccc4cccnc34)CC2)cc1
Mus musculus [8]
  Activity: Active
Mus musculus [9]
  Activity: inactive
[1]
  logP: 3.58

## O=C(c1ccccc1)N1CCN(CCCOc2cccc3cccnc23)CC1
[1]
  logP: 3.02
Mus musculus [10]
  Activity: Active
Mus musculus [11]
  Activity: inactive

## O=C(c1ccc(F)cc1)C1CCN(CCn2c(=O)[nH]c3ccccc3c2=O)CC1 [KETANSERIN]
[1]
  logP: 2.37

## Clc1ccc(CN2CCN(CCCOc3ccc4ncccc4c3)CC2)cc1
Mus musculus [12]
  Activity: inactive
[1]
  logP: 4.14
Mus musculus [13]
  Activity: inactive

## Cc1nc2n(c(=O)c1CCN1CCC(c3noc4cc(F)ccc34)CC1)CCCC2 [RISPERIDONE]
[1]
  logP: 2.1

## O=C(c1ccc(Cl)cc1)N1CCN(CCCOc2cccc3cccnc23)CC1
Mus musculus [12]
  Activity: inactive
[1]
  logP: 3.58
Mus musculus [13]
  Activity: Active

## CN1CCN(C2=Nc3cc(Cl)ccc3Nc3ccccc32)CC1 [CLOZAPINE]
[1]
  logP: 3.71

## O=C(c1ccccc1)N1CCN(CCCOc2ccc3ncccc3c2)CC1
[1]
  logP: 3.02
Mus musculus [2]
  Activity: inactive
Mus musculus [3]
  Activity: Active

Source: ChEMBL document CHEMBL1158410, “Synthesis and evaluation of 1-(quinoliloxypropyl)-4-aryl piperazines for atypical antipsychotic effect” (Bioorg Med Chem Lett, 2009)
